Columns and labels:
[1] = target: human Gal-3 (hGal-3) (Homo sapiens (Human), UniProt P17931); assay: Competitive binding assay: biotinylated hGal-3 binding to microplate-adsorbed asialofetuin (ASF); settings: Activity on hGal-3; binding of biotinylated hGal-3 to ASF-coated plates; mean values
Procedure, shortened: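 Serially diluted compounds competed with biotinylated human Gal-3 for binding to plate-adsorbed asialofetuin over 3 h at 4 °C. Bound Gal-3 was detected with streptavidin-peroxidase (80 ng/mL, 1 h, 4 °C) and ABTS substrate. IC50 values are means of several measurements.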

[2] = target: human Gal-1 (hGal-1) (Homo sapiens, UniProt P09382); assay: Competitive binding assay: biotinylated hGal-1 binding to microplate-adsorbed asialofetuin (ASF); settings: Activity on hGal-1; binding of biotinylated hGal-1 to ASF-coated plates; mean values
Procedure, shortened: (§1)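 Inhibition measured as loss of hGal-1 (biotinylated, 300–1000 ng/mL, wild type or Cys→Ser mutant) binding to adsorbed asialofetuin over 3 h at 4 °C. Bound lectin detected with streptavidin-HRP and ABTS (410 nm, 30–45 min); IC50 values averaged across repeat measurements.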

[3] = target: human Gal-1 (hGal-1); assay: as above; settings: Activity on hGal-1; binding of biotinylated hGal-1 to ASF-coated plates; mean values
Procedure, shortened: as §1

Sequence of human Gal-3 (hGal-3) (P17931 whole entry): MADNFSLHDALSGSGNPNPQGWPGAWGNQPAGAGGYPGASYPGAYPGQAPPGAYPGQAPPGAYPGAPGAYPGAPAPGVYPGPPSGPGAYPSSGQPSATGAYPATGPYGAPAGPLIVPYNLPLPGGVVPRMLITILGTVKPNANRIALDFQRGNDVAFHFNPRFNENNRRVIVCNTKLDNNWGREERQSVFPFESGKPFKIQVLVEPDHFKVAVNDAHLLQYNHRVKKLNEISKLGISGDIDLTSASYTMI
Sequence of human Gal-1 (hGal-1) (P09382 2-135 limits assumed): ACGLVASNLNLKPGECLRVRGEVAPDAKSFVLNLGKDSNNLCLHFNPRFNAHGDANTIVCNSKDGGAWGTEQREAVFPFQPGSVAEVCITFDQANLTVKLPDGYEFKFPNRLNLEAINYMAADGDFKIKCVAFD
Sequence of human Gal-1 (hGal-1) (Homo sapiens, UniProt P09382) (P09382 2-135 limits assumed): as above

IC50 [1] [nM]	IC50 [3] [nM]	Compound	IC50 [2] [nM]
32	377	CO[C@@H]1[C@@H](n2cc(-c3cc(F)c(F)c(F)c3)nn2)[C@@H](O)[C@@H](CO)O[C@H]1C(=O)N(c1ccc(Cl)c(Br)c1)[C@H]1CCCC[C@@H]1O [Example 99, (2R,3R,4S,5R,6R)-N-(3-bromo-4-chlorophenyl)-5-hydroxy-N-((1S,2S)-2-hydroxycyclohexyl)-6-(hydroxymethyl)-3-methoxy-4-(4-(3,4,5-trifluorophenyl)-1H-1,2,3-triazol-1-yl)tetrahydro-2H-pyran-2-carboxamide]	–
19	449	CO[C@@H]1[C@@H](n2cc(-c3cc(F)c(F)c(F)c3)nn2)[C@@H](O)[C@@H](CO)O[C@H]1C(=O)N(c1cc(F)cc(Cl)c1)[C@H]1CCCC[C@@H]1O [Example 121, (2R,3R,4S,5R,6R)-N-(3-chloro-5-fluorophenyl)-5-hydroxy-N-((1S,2S)-2-hydroxycyclohexyl)-6-(hydroxymethyl)-3-methoxy-4-(4-(3,4,5-trifluorophenyl)-1H-1,2,3-triazol-1-yl)tetrahydro-2H-pyran-2-carboxamide]	–
20	163	CO[C@@H]1[C@@H](n2cc(-c3cc(F)c(F)c(F)c3)nn2)[C@@H](O)[C@@H](CO)O[C@H]1C(=O)N(c1ccc2ncsc2c1)[C@H]1CCCC[C@@H]1O [Example 93, (2R,3R,4S,5R,6R)-N-(benzo[d]thiazol-6-yl)-5-hydroxy-N-((1S,2S)-2-hydroxycyclohexyl)-6-(hydroxymethyl)-3-methoxy-4-(4-(3,4,5-trifluorophenyl)-1H-1,2,3-triazol-1-yl)tetrahydro-2H-pyran-2-carboxamide]	–
52	497	CO[C@@H]1[C@@H](n2cc(-c3cc(F)c(F)c(F)c3)nn2)[C@@H](O)[C@@H](CO)O[C@H]1C(=O)N(Cc1ccccc1Cl)[C@H]1CCCC[C@@H]1O [Example 12, (2R,3R,4S,5R,6R)-N-(2-chlorobenzyl)-5-hydroxy-N-((1S,2S)-2-hydroxycyclohexyl)-6-(hydroxymethyl)-3-methoxy-4-(4-(3,4,5-trifluorophenyl)-1H-1,2,3-triazol-1-yl)tetrahydro-2H-pyran-2-carboxamide]	–
212	34500	CC(=O)O[C@@H]1[C@@H](n2cc(-c3cc(F)c(F)c(F)c3)nn2)[C@@H](O)[C@@H](CO)O[C@H]1C(=O)N(Cc1nccn1C)[C@H]1CCCC[C@@H]1O [Example 42]	–
21	273	CO[C@@H]1[C@@H](n2cc(-c3cc(F)c(NCCCO)c(F)c3)nn2)[C@@H](O)[C@@H](CO)O[C@H]1C(=O)N(c1cc(Cl)cc(Cl)c1)[C@H]1CCCC[C@@H]1O [Example 204, (2R,3R,4S,5R,6R)—N-(3,5-dichlorophenyl)-4-(4-(3,5-difluoro-4-((3-hydroxypropyl)amino)phenyl)-1H-1,2,3-triazol-1-yl)-5-hydroxy-N-((1S,2S)-2-hydroxycyclohexyl)-6-(hydroxymethyl)-3-methoxytetrahydro-2H-pyran-2-carboxamide]	–
112	10700	O=C([C@@H]1O[C@H](CO)[C@H](O)[C@H](n2cc(-c3cc(F)c(F)c(F)c3)nn2)[C@H]1O)N(Cc1cnc(N2CCOCC2)s1)[C@H]1CCCC[C@@H]1O [Example 21]	–
41	1140	CO[C@@H]1[C@@H](n2cc(-c3ccc4nc(C)sc4c3)nn2)[C@@H](O)[C@@H](CO)O[C@H]1C(=O)N(c1cc(Cl)cc(Cl)c1)[C@H]1CCCC[C@@H]1O [Example 191, (2R,3R,4S,5R,6R)-N-(3,5-dichlorophenyl)-5-hydroxy-N-((1S,2S)-2-hydroxycyclohexyl)-6-(hydroxymethyl)-3-methoxy-4-(4-(2-methylbenzo[d]thiazol-6-yl)-1H-1,2,3-triazol-1-yl)tetrahydro-2H-pyran-2-carboxamide]	–

Compound	IC50 [1] [nM]	IC50 [3] [nM]	IC50 [2] [nM]
CO[C@@H]1[C@@H](n2cc(-c3cc(F)c(C)c(F)c3)nn2)[C@@H](O)[C@@H](CO)O[C@H]1C(=O)N(c1cc(F)cc(Br)c1)[C@H]1CCCC[C@@H]1O [Example 160, (2R,3R,4S,5R,6R)-N-(3-bromo-5-fluorophenyl)-4-(4-(3,5-difluoro-4-methylphenyl)-1H-1,2,3-triazol-1-yl)-5-hydroxy-N-((1S,2S)-2-hydroxycyclohexyl)-6-(hydroxymethyl)-3-methoxytetrahydro-2H-pyran-2-carboxamide]	11	–	1770
(2R,3R,5R,6R)—N-(3,5-dichlorophenyl)-5-hydroxy-N-(1S,2S)-2-hydroxycyclohexyl-3-(2-hydroxyethoxy)-6-(hydroxymethyl)-4-(4-(3,4,5-trifluorophenyl)-1H-1,2,3-triazol-1-yl)tetrahydro-2H-pyran-2-carboxamide [Example 196]	21	–	161

Reference: patent US12291519B2, “2-hydroxycycloalkane-1-carbamoyl” (Idorsia Pharmaceuticals Ltd, priority 2019, dated 2025)
